Measured values: PubChem BioAssay (NCI)
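Five concentrations, 48 hours, 96-well plates. At the GI50, growth is halved. TGI: total growth inhibition.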

Key:
Test in all cases: DTP human tumour cell line panel, 48 h
786-0 renal = system: 786-0 renal
A498 renal = system: A498 renal
A549 NSCLC = system: A549 NSCLC
ACHN renal = system: ACHN renal
BT-549 breast = system: BT-549 breast
CAKI-1 renal = system: CAKI-1 renal
CCRF-CEM leukemia = system: CCRF-CEM leukemia
COLO 205 colon = system: COLO 205 colon
DU-145 prostate = system: DU-145 prostate
HCC-2998 colon = system: HCC-2998 colon
HCT-116 colon = system: HCT-116 colon
HCT-15 colon = system: HCT-15 colon
HL-60(TB) leukemia = system: HL-60(TB) leukemia
HOP-62 NSCLC = system: HOP-62 NSCLC
HOP-92 NSCLC = system: HOP-92 NSCLC
HS 578T breast = system: HS 578T breast
HT29 colon = system: HT29 colon
IGROV1 ovarian = system: IGROV1 ovarian
K-562 leukemia = system: K-562 leukemia
KM12 colon = system: KM12 colon
LOX IMVI melanoma = system: LOX IMVI melanoma
M14 melanoma = system: M14 melanoma
MALME-3M melanoma = system: MALME-3M melanoma
MCF7 breast = system: MCF7 breast
MDA-MB-231 breast = system: MDA-MB-231 breast
MDA-MB-435 = system: MDA-MB-435
MOLT-4 leukemia = system: MOLT-4 leukemia
NCI-H226 lung = system: NCI-H226 lung

Structure (SMILES): O=C(Nc1cccc2[nH]c(C(F)(F)F)nc12)c1cc(Cl)ccc1Cl
- GI50 (786-0 renal): 3.01 µM
- TGI (786-0 renal): 12.1 µM
- GI50 (A498 renal): 1.63 µM
- TGI (A498 renal): 6.19 µM
- GI50 (A549 NSCLC): 3.45 µM
- TGI (A549 NSCLC): > 100 µM
- GI50 (ACHN renal): 2.88 µM
- TGI (ACHN renal): 16.6 µM
- GI50 (BT-549 breast): 2.33 µM
- TGI (BT-549 breast): 8.14 µM
- GI50 (CAKI-1 renal): 2.7 µM
- TGI (CAKI-1 renal): 31.3 µM
- GI50 (CCRF-CEM leukemia): 3.16 µM
- TGI (CCRF-CEM leukemia): 46.8 µM
- GI50 (COLO 205 colon): 1.84 µM
- TGI (COLO 205 colon): 3.62 µM
- GI50 (DU-145 prostate): 4.94 µM
- TGI (DU-145 prostate): > 100 µM
- GI50 (HCC-2998 colon): 3.87 µM
- TGI (HCC-2998 colon): 15.8 µM
- GI50 (HCT-116 colon): 3.06 µM
- TGI (HCT-116 colon): 12.9 µM
- GI50 (HCT-15 colon): 3.38 µM
- TGI (HCT-15 colon): 19.4 µM
- GI50 (HL-60(TB) leukemia): 2.87 µM
- TGI (HL-60(TB) leukemia): 7.53 µM
- GI50 (HOP-62 NSCLC): 2.34 µM
- TGI (HOP-62 NSCLC): 7.37 µM
- GI50 (HOP-92 NSCLC): 2.09 µM
- TGI (HOP-92 NSCLC): 6.72 µM
- GI50 (HS 578T breast): 2.91 µM
- TGI (HS 578T breast): 12.9 µM
- GI50 (HT29 colon): 3.62 µM
- TGI (HT29 colon): 14.7 µM
- GI50 (IGROV1 ovarian): 6.04 µM
- TGI (IGROV1 ovarian): > 100 µM
- GI50 (K-562 leukemia): 3.71 µM
- TGI (K-562 leukemia): > 100 µM
- GI50 (KM12 colon): 3.37 µM
- TGI (KM12 colon): 11.2 µM
- GI50 (LOX IMVI melanoma): 2.97 µM
- TGI (LOX IMVI melanoma): 10 µM
- GI50 (M14 melanoma): 3.32 µM
- TGI (M14 melanoma): 16.3 µM
- GI50 (MALME-3M melanoma): 2.85 µM
- TGI (MALME-3M melanoma): 8.61 µM
- GI50 (MCF7 breast): 2.81 µM
- TGI (MCF7 breast): 49.7 µM
- GI50 (MDA-MB-231 breast): 2.43 µM
- TGI (MDA-MB-231 breast): 6.71 µM
- GI50 (MDA-MB-435): 2.96 µM
- TGI (MDA-MB-435): 12.4 µM
- GI50 (MOLT-4 leukemia): 3 µM
- TGI (MOLT-4 leukemia): 8.65 µM
- GI50 (NCI-H226 lung): 3.39 µM
- TGI (NCI-H226 lung): 25.5 µM
